According to PubChem BioAssay AID449764 (Southern Research Specialized Biocontainment Screening …, 2010):

System: Mycobacterium tuberculosis H37Rv growth inhibition, no glycerol
Assay: Confirmatory growth inhibition assay, Mycobacterium tuberculosis H37Rv, absence of glycerol (AID 449764);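 note: growth read after 7 days of incubation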
Conditions: for IC90: measured here: IC90 growth inhibition

| Compound | IC50 | IC90 |
| --- | --- | --- |
| Cc1cccc(N(C(=O)c2nsc(Cl)c2Cl)C(C(=O)NC2CCCC2)c2ccc(O)cc2)c1C (stereo not given) | 30.8 µM | 41 µM |
| C=C(CCC(=O)c1ccccc1)C(=O)c1ccccc1 | 18 µM | 25.1 µM |
| CC(C)(C)c1ccc(-c2nc(-c3ccncc3)no2)cc1 | 35.2 µM | 47.6 µM |
| COc1ccc(-c2ccc(C#N)c(SCC(=O)OCc3ccccc3)n2)cc1OC | 23.9 µM | 26.8 µM |
| Cc1ccc(C2C3=C(CC(C)(C)CC3=O)N=C3c4ccccc4C(=O)C32)cc1 (stereo not given) | 63.6 µM | 87.5 µM |
| O=C(NCC(c1cccs1)N1CCOCC1)c1cc([N+](=O)[O-])cc([N+](=O)[O-])c1 (stereo not given) | 0.81 µM | 1.5 µM |
| c1cc2c3c(cccc3c1)NC1(CCC3(CC1)Nc1cccc4cccc(c14)N3)N2 | 78.1 µM | > 100 µM |
| CC1=CC(=O)c2c(O)ccc(O)c2C1=O | 5.64 µM | 7.87 µM |
| N#Cc1nccnc1S(=O)(=O)c1cccs1 | 59.3 µM | 73.3 µM |
| CN(C)C(=O)C1C2NC(=S)N(c3ccc(Cl)cc3)C1(C)Oc1ccc(Cl)cc12 (stereo not given) | 31.7 µM | 55.5 µM |
| NC(=O)c1ccc(N=Cc2ccc([N+](=O)[O-])s2)cc1 | 16.9 µM | 19.8 µM |
| O=C(NC(=S)Nc1cccc2cccnc12)c1ccccc1 | 56.9 µM | > 100 µM |
| CNC(=S)/N=C/NOCc1c(Cl)cccc1Cl | 2.96 µM | 3.35 µM |
| O=C(c1cnn2c(C(F)F)cc(-c3ccccc3)nc12)N1CCc2ccccc2C1 | 35.4 µM | 48.6 µM |
| C/C(=N/Nc1ccnc2cc(Cl)ccc12)c1ccc(O)cc1 | 30.1 µM | 36.2 µM |
| CCN(CC)C(=O)Oc1ccc2c(=O)c(-c3ccc(OC)cc3)coc2c1 | 52.8 µM | > 100 µM |
| O=C(COc1cccc(Oc2ccccc2)c1)Nc1ncccn1 | 50.4 µM | > 100 µM |
| O=C1C=C(c2ccc3[nH]ccc3c2)C[C@@H](c2ccc(Cl)cc2)C1 | 84.5 µM | > 100 µM |

| Compound | IC50 | IC90 |
| --- | --- | --- |
| Cc1csc(NC(=O)CCCC(=O)O)c1-c1nc2ccccc2s1 | 90.7 µM | > 100 µM |
| CCN1CCN(Cc2ccc(NC(=O)c3cc(NC(=O)c4cncc(-c5cccs5)c4)cc(OC)c3)cc2C(F)(F)F)CC1 | 10.3 µM | 16.5 µM |
| Cc1ccc(N2CCN(C(=O)c3cn(CC4CCCCC4)nn3)C(C)C2)cc1 (stereo not given) | 39.5 µM | 50.3 µM |
| N#C/C=C\Oc1ccc(Cl)cc1N | 21.5 µM | 23.9 µM |
| CCOc1ccc(NC(=O)CCc2nnc3ccc(N4CCC(C)CC4)nn23)cc1 | 12.5 µM | 14.7 µM |
| C=C(C)C(=O)OCC(O)COc1ccc(C(C)(C)c2ccc(OCC(O)COC(=O)C(=C)C)cc2)cc1 (stereo not given) | 35.6 µM | 49.1 µM |
| C=CCOC(=O)COc1ccc2c(C)c(CC)c(=O)oc2c1 | 1.49 µM | 1.68 µM |
| O=c1/c(=C\c2ccc(O)cc2)sc2n1C(c1ccccc1)C(c1ccccc1)=NN=2 (stereo not given) | 41.1 µM | 66 µM |
| CC(=O)c1c(N2CCCC2)[nH]c(-c2ccccc2)nc1=S | 81.4 µM | > 100 µM |
| Cn1nc(-c2ccccc2F)c2cc(C(=O)Nc3ccc4c(c3)OCCO4)sc21 | 41.7 µM | > 100 µM |
| OCC1(Cc2cccc(Cl)c2)CCCN(Cc2ccc3cc(F)ccc3n2)C1 (stereo not given) | 38.2 µM | 54.6 µM |
| CCCc1cnc(NCCNCC(O)COc2ccc(Cl)c(Cl)c2)nc1 (stereo not given) | 24.2 µM | 27.7 µM |
| CCn1c2ccccc2c2cc(CNCc3ccc(OC)cc3OC)ccc21 | 12.2 µM | 14 µM |
| CSC(=S)N/N=C/c1ccccc1 | 39.8 µM | 54.1 µM |
| COc1ccc(N(CC(=O)Nc2cc(Cl)ccc2C)S(=O)(=O)c2c(C)n[nH]c2C)cc1 | 40.5 µM | 52.7 µM |
| CCOC(=O)CSc1ncnc2c1sc1nc(N3CCOCC3)c3c(c12)CCCC3 | 24.9 µM | 27.9 µM |
| CCCNc1nc(-c2cc(C(=O)Nc3ccccc3)on2)cc(C(C)C)n1 | 42.5 µM | 68.9 µM |
